Assay results from patent publication US20230310479A1, “LOW DOSE ADJUVANT EPIGENETIC CANCER THERAPY” (THE JOHNS HOPKINS UNIVERSITY, priority 2019, published 2023).
Like-named read-outs stand apart in the source and are kept apart here.

What was measured:
[1] = cited from earlier work
[2] = tested on: CCR2; test: CCR2 expression in monocytic MDSCs (cDNA array, quantitative PCR, FACS); format: in vivo, mouse; details: three days of treatment, 30 or 75 mg/kg/d orally, LLC mice
From the text: FIGS. 2A-2G. […] FACS and graphs showing percentages and absolute numbers of the donor-derived-cell subset (CD45.1^+ cells) in both lungs of the recipient LLC mice (n=3 mice per group). FIG. 2C: Cell-sorting schema for collecting monocytic MDSCs on day 3 after resection (left). Volcano plots showing differences in RNA expression of monocytic MDSCs from the bone marrow (BM) or lung between low-dose-AET-and vehicle-treated LLC mice (right) (n=3 biological replicates). FIG. 2D: Agilent cDNA array expression of chemokines and chemokine receptors in monocytic MDSCs from bone marrow or lungs of low-dose-AET-and vehicle-treated LLC mice (n=3 biological replicates). False-discovery-rate (FDR)-adjusted P values of CCR2 are 0.005 (bone marrow) and 0.016 (lung). Cxcr7 is also known as Ackr3. […] In the FACS plot, red represents low-dose AET and blue represents mock treatment. […]
FIGS. 10A-10H. […] CD45.1^+ cells (transferred polymorphonuclear MDSCs) were identified in the lungs of the recipient mice and analyzed by flow cytometry (right, n=3 mice per group). […] CD45.1^+ cells (transferred polymorphonuclear MDSCs) were identified in the lungs of the recipient CD45.2 mice and analyzed by flow cytometry at 18 h after transfer (right, n=3 mice per group). […] Gene-set enrichment P values, NES values and FDR values reported are calculated with 1,000 permutations in the GSEA software. […]

SMILES	solubility ([1]; in acetone, ethanol and methyl ketone)	solubility ([1]; in dimethylsulfoxide (DMSO))	solubility ([1]; in ethanol/water (50/50), propylene glycol and polyethylene glycol)	solubility ([1]; in water, water-saturated octanol, 5% dextrose in water, N-methyl-2-pyrrolidone, normal saline and 5% Tween 80 in water)	expression of CCR2 in monocytic MDSCs from bone marrow in vivo [2]
Nc1ncn([C@@H]2O[C@H](CO)[C@@H](O)[C@H]2O)c(=O)n1 [5-azacitidine, 4-amino-1-β-D-ribofuranozyl-s-triazin-2(1H)-one]	insoluble	soluble	slightly soluble	sparingly soluble	
Cc1ccc2nc(NCCN)c3ncc(C)n3c2c1 [BMS-345541]					decreased expression
